Data reported in patent US20240271096A1, “EFFICIENT DIFFERENTIATION OF SECOND HEART FIELD CARDIAC PROGENITOR CELLS AND RIGHT VENTRICLE CARDIOMYOCYTES FROM HUMAN PLURIPOTENT STEM CELLS” (Wisconsin Alumni Research Foundation, priority 2023, published 2024).

Key:
[1] = system: human induced pluripotent stem cell-derived cardiac progenitor cells; experiment: Quantitative PCR of heart field and cardiac markers in differentiating hiPSCs (day 0 to day 7); type: cell-based; settings: B-27 containing insulin day 0 to day 1; qPCR day 7; vs control cells
Method: For LV-cardiomyocyte differentiation, cardiac differentiation was performed according to the protocol published by (Lian et al., 2012, Proc Natl Acad Sci USA 109:[…]-57). Cells were dissociated with StemPro Accutase Cell Dissociation Reagent at 37° C. for 5 minutes. HESCs were seeded on Matrigel-coated 24-well plates (Corning) in StemFlex Medium supplemented with 10 μmol/[…] were seeded on iMatrix-511-coated 12-well plates (Corning) in StemFit A[…] supplemented with 10 μmol/[…] at seeding densities of 1×10^5 cells/cm^2 for hESCs and 1.25-2.5×10^4 cells/cm^2 for hiPSCs. Cells were cultured for 4 days until the start of differentiation (day 0). On day 0, the medium was changed to RPMI 1640 Medium (Thermo Fisher Scientific) supplemented with B-27 Supplement minus insulin (Thermo Fisher Scientific) (RPMI/B27-insulin) or B-27 Supplement with insulin (Thermo Fisher Scientific), and 12 μmol/L CHIR 99021 (SelleckChem, Houston, TX, United States), and the cells incubated in this medium for 24 h (day 1). On day 1, the medium was changed to RPMI/B27-insulin. […] PowerUpTM SYBR Green Master Mix (Thermo Fisher Scientific) and QuantStudio 1 (Thermo Fisher Scientific) were used for quantitative PCR (q-PCR), wherein q-PCR data were processed using the ΔΔCT method. […] Data were analyzed with the web-based tool of GeneGlobe Data Analysis Center (Qiagen).

[2] = system: HES3-TBX5-TdTomato^+/W/NKX2-5^eGFP/W reporter hESC line; experiment: NKX2-5-eGFP and TBX5-tdTomato reporter expression during GiWi cardiac differentiation (fluorescence microscopy); type: cell-based, human
Description: Human iPSCs (hiPSCs) were established from a healthy donor (FIG. 1), 201B7 hiPSCs (RIKEN BRC, Tsukuba, Japan), and HES3-TBX5-TdTomato^+/W/NKX2-5^eGFP/Wreporter hESCs that were a kind gift from Dr. Reza Ardehali, UCLA Geffen School of Medicine (Pezhouman et al., 2022, Cardiovasc Res. 118(3):828-43), were used. HiPSCs were maintained on iMatrix-511 (Matrixome, Osaka, Japan)-coated 6-well plates (Corning, Glendale, Arizona, United States) in StemFit AK02N (Ajinomoto, Tokyo, Japan) and passaged every 7 days.
HESCs were maintained on Matrigel Growth Factor Reduced Basement Membrane Matrix (Corning)-coated 6-well plates (Corning) in StemFlex Medium (Thermo Fisher Scientific, Waltham, MA, United States) and passaged every 3-4 days. StemPro Accutase Cell Dissociation Reagent (Thermo Fisher Scientific) was used for dissociation. 10 μmol/L Y27632 (Tocris, Bristol, United Kingdom) was used for improvement of cell survival for 24 hours after seeding. Mycoplasma tests were performed for all the cell culture in this study.
For LV-cardiomyocyte differentiation, cardiac differentiation was performed according to the protocol published by (Lian et al., 2012, Proc Natl Acad Sci USA 109:E1848-57). Cells were dissociated with StemPro Accutase Cell Dissociation Reagent at 37° C. for 5 minutes. HESCs were seeded on Matrigel-coated 24-well plates (Corning) in StemFlex Medium supplemented with 10 μmol/L Y-27632. HiPSCs were seeded on iMatrix-511-coated 12-well plates (Corning) in StemFit AK02N supplemented with 10 μmol/L Y-27632 at seeding densities of 1×10^5 cells/cm^2 for hESCs and 1.25-2.5×10^4 cells/cm^2 for hiPSCs. Cells were cultured for 4 days until the start of differentiation (day 0). On day 0, the medium was changed to RPMI 1640 Medium (Thermo Fisher Scientific) supplemented with B-27 Supplement minus insulin (Thermo Fisher Scientific) (RPMI/B27-insulin) or B-27 Supplement with insulin (Thermo Fisher Scientific), and 12 μmol/L CHIR 99021 (SelleckChem, Houston, TX, United States), and the cells incubated in this medium for 24 h (day 1). On day 1, the medium was changed to RPMI/B27-insulin. To enhance cardiac differentiation, 50 μmol/L 2-O-α-D-glucopyranosyl-L-ascorbic acid (Tokyo Chemical Industry, Tokyo, Japan) was added on day 1 only for hiPSCs (Burridge et al., 2014 Nat Methods, 11:855-860). On day 3, the medium was changed to RPMI/B27-insulin supplemented with 5 μmol/L IWP2 (SelleckChem) and on day 5, the medium was changed to 1 ml RPMI/B27-insulin. From day 7, the cells were cultured with RPMI/B27-insulin, and the cells were fed every other day. On day 12, the cells were washed with PBS (Thermo Fisher Scientific) and cultured with DMEM or RPMI, no glucose supplemented with 8 mmol/L L-(+)-Lactic acid (Merck) (Tohyama et al., 2013 Cell Stem Cell, 12:127-37). The medium was changed every other day until day 17. After day 17, the cells were cultured with RPMI/B27 and fed every 2 to 3 days. For long-term culture, the cells were dissociated with TrypLE™ Select Enzyme (10×) (Thermo Fisher Scientific) at 37° C. for 15-20 minutes and seeded on Matrigel- or iMatrix-511-coated plates. For RV-cardiomyocyte induction, Dorsomorphin 2HCl (SelleckChem), dorsomorphin homologue 1 (DMH1) (SelleckChem), or 3 μg/L insulin were used from day 0 to day 1. For FIG. 15A and FIG. 15B, dorsomorphin (DM) or 3 μg/L insulin were added on day 0 (for 24 hours), 1, 3, or 5 (for 48 hours).

[3] = 3 μg/mL insulin on day 0, read day 13
[4] = B-27 supplement containing insulin on differentiation day 0, read day 7 (cardiac progenitor stage)
[5] = B-27 supplement containing insulin on differentiation day 0, read day 14 (cardiomyocyte stage)

In the case of insulin, the “expression levels of FHF markers (TBX5 and HCN4)” value [1] is reported as “lower expression levels”, the “mRNA expression levels of SHF markers (ISL1 and CXCR4)” value [1] is reported as “higher mRNA expression levels” and the Nkx2.5-eGFP expression [2, 3] is reported as “strong”. For the same substance, the TBX5-tdTomato expression [2, 3] was “without TBX5-tdTomato expression”, the “eGFP and TBX5-tdTomato expression” value ([2]; 10 μg/mL insulin on day 0, read day 13) was “very low” and the “TBX5-tdTomato expression, dose dependence” value ([2]; 0.1, 0.3, 1, and 3 μg/mL insulin on day 0, read day 13) was “decreased with increasing doses”. For the same substance, the NKX2-5-eGFP expression [2, 4] was “low”, the TBX5-tdTomato expression [2, 4] was “low” and the NKX2-5-eGFP expression [2, 5] was “high”. The TBX5-tdTomato expression [2, 5] was “low”.
